The text below walks through data of PubChem BioAssay AID256 (DTP/NCI, 2004).

The test system of this experiment is CD2F1 mice, L1210 leukemia ip, survival T/C. The experiment is described as follows: NCI In Vivo Anticancer Drug Screen. Data for tumor model L1210 Leukemia (intraperitoneal) in CD2F1 (CDF1) mice. Conditions: higher = longer survival. Summed up:
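Read-out first: treated-group measurement over vehicle-control measurement, expressed as a ratio. Animals bore a transplanted tumor line and were dosed with compound or vehicle.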

[1] abbreviates: endpoint: mean survival time, dose: 100.0 mg/kg/injection, schedule: Q04DX003 (ip), vehicle: saline.
Where [2] appears, read: endpoint: mean survival time, dose: 100.0 mg/kg/injection, schedule: Q04DX002 (ip), vehicle: saline with Tween-80.
Where [3] appears, read: endpoint: mean survival time, dose: 200.0 mg/kg/injection, schedule: Q04DX002 (ip), vehicle: saline with Tween-80.
Where [4] appears, read: endpoint: mean survival time, dose: 100.0 mg/kg/injection, schedule: Q01DX001 (ip), vehicle: saline with Tween-80.
The mark [5] stands for this setting: endpoint: mean survival time, dose: 200.0 mg/kg/injection, schedule: Q01DX001 (ip), vehicle: saline with Tween-80.
[6] abbreviates: endpoint: mean survival time, dose: 400.0 mg/kg/injection, schedule: Q01DX001 (ip), vehicle: saline with Tween-80.
The mark [7] stands for this setting: endpoint: mean survival time, dose: 100.0 mg/kg/injection, schedule: Q04DX003 (ip), vehicle: saline with Tween-80.
Setting [8] is: endpoint: mean survival time, dose: 200.0 mg/kg/injection, schedule: Q04DX003 (ip), vehicle: saline with Tween-80.
Setting [9] is: endpoint: mean survival time, dose: 400.0 mg/kg/injection, schedule: Q04DX003 (ip), vehicle: saline with Tween-80.
[10] abbreviates: endpoint: mean survival time, dose: 50.0 mg/kg/injection, schedule: Q01DX009 (ip), vehicle: saline with Tween-80.
Setting [11] is: endpoint: mean survival time, dose: 100.0 mg/kg/injection, schedule: Q01DX009 (ip), vehicle: saline with Tween-80.
The mark [12] stands for this setting: endpoint: mean survival time, dose: 200.0 mg/kg/injection, schedule: Q01DX009 (ip), vehicle: saline with Tween-80.

Where “and” joins values, the source holds several entries; their conditions need not be identical. Equal values may be shown once. Inconclusive results and toxic doses are left out.

For `CN(C)c1ccc(N=Cc2cc[n+](C)cc2)cc1`, the T/C was 98 % of control (endpoint: mean survival time, dose: 25.0 mg/kg/injection, schedule: Q04DX003 (ip), vehicle: saline); 102 % of control (endpoint: mean survival time, dose: 50.0 mg/kg/injection, schedule: Q04DX003 (ip), vehicle: saline); 102 % of control under setting [1].

Consider `COC(=O)c1cccc(I)c1`, for which the T/C by setting is: under setting [2], 100 % of control; under setting [3], 100 % of control; (endpoint: mean survival time, dose: 400.0 mg/kg/injection, schedule: Q04DX002 (ip), vehicle: saline with Tween-80) 96 % of control.

For `COc1cccc(C(=O)NC[n+]2cccc(O)c2)c1`, the T/C was 100 % of control under setting [4], 92 % of control under setting [5] and 88 % of control under setting [6].

For `O=C(O)c1cc2c3ccccc3ncc2c2ccccc12`, the T/C under setting [7] was 94 % of control, the T/C under setting [8] was 100 % of control and the T/C under setting [9] was 101 % of control.

On to `O=[N+]([O-])c1ccc(C(F)(F)F)cc1`, for which the T/C under setting [7] was 104 % of control and the T/C under setting [8] is 102 % of control.

As for `O=C(CCCN1CCC(C(O)c2ccc(F)cc2)CC1)c1ccc(F)cc1` (centres undefined), the T/C is 103 % of control and 109 % of control and 112 % of control (endpoint: median survival time, dose: 6.25 mg/kg/injection, schedule: Q01DX009 (ip), vehicle: saline with Tween-80); 104 % of control (endpoint: median survival time, dose: 6.25 mg/kg/injection, schedule: Q06HX014 (oral), vehicle: saline with Tween-80); 120 % of control and 108 % of control (endpoint: median survival time, dose: 12.5 mg/kg/injection, schedule: Q01DX009 (ip), vehicle: saline with Tween-80); 111 % of control (endpoint: median survival time, dose: 12.5 mg/kg/injection, schedule: Q01DX009 (oral), vehicle: saline with Tween-80); 105 % of control (endpoint: median survival time, dose: 12.5 mg/kg/injection, schedule: Q06HX014 (oral), vehicle: saline with Tween-80); 121 % of control (endpoint: median survival time, dose: 25.0 mg/kg/injection, schedule: Q01DX009 (ip), vehicle: saline with Tween-80). Moreover, the T/C is, setting by setting: (endpoint: median survival time, dose: 25.0 mg/kg/injection, schedule: Q01DX009 (oral), vehicle: saline with Tween-80) 105 % of control; (endpoint: median survival time, dose: 25.0 mg/kg/injection, schedule: Q04DX003 (oral), vehicle: saline with Tween-80) 102 % of control; (endpoint: median survival time, dose: 25.0 mg/kg/injection, schedule: Q06HX014 (oral), vehicle: saline with Tween-80) 105 % of control; (endpoint: median survival time, dose: 29.7 mg/kg/injection, schedule: Q01DX009 (oral), vehicle: saline with Tween-80) 109 % of control; (endpoint: median survival time, dose: 44.5 mg/kg/injection, schedule: Q01DX009 (oral), vehicle: saline with Tween-80) 111 % of control; (endpoint: median survival time, dose: 50.0 mg/kg/injection, schedule: Q01DX009 (ip), vehicle: saline with Tween-80) 123 % of control and 124 % of control. The T/C (endpoint: median survival time, dose: 50.0 mg/kg/injection, schedule: Q01DX009 (oral), vehicle: saline with Tween-80) is 115 % of control; the T/C (endpoint: median survival time, dose: 50.0 mg/kg/injection, schedule: Q04DX003 (oral), vehicle: saline with Tween-80) was 112 % of control; the T/C (endpoint: median survival time, dose: 50.0 mg/kg/injection, schedule: Q06HX014 (oral), vehicle: saline with Tween-80) is 113 % of control; the T/C (endpoint: median survival time, dose: 66.7 mg/kg/injection, schedule: Q01DX009 (oral), vehicle: saline with Tween-80) is 118 % of control; the T/C (endpoint: median survival time, dose: 100.0 mg/kg/injection, schedule: Q01DX009 (ip), vehicle: saline with Tween-80) is 118 % of control; the T/C (endpoint: median survival time, dose: 100.0 mg/kg/injection, schedule: Q01DX009 (oral), vehicle: saline with Tween-80) was 118 % of control. Also, the T/C by setting is: (endpoint: median survival time, dose: 100.0 mg/kg/injection, schedule: Q04DX003 (oral), vehicle: saline with Tween-80) 111 % of control; (endpoint: median survival time, dose: 200.0 mg/kg/injection, schedule: Q04DX003 (oral), vehicle: saline with Tween-80) 115 % of control.

For the compound `CC(C)(C)OOC(=O)c1ccccn1`, the T/C by setting is: under setting [2], 95 % of control; under setting [3], 95 % of control.

As for `CN(C)N=Nc1ccc(S(=O)(=O)Nc2ncccn2)cc1`, the T/C is, setting by setting: (endpoint: mean survival time, dose: 25.0 mg/kg/injection, schedule: Q01DX009 (ip), vehicle: saline with Tween-80) 120 % of control; under setting [10], 124 % of control; under setting [7], 113 % of control; under setting [9], 157 % of control.

As for `CCCCCC(O)C(C)C(C)C` (centres undefined), the T/C under setting [10] is 100 % of control, the T/C under setting [11] is 95 % of control and the T/C under setting [12] is 103 % of control.

In the case of `COc1ccc(CN(C)CCO)cc1OC`, the T/C reads like this: (endpoint: median survival time, dose: 25.0 mg/kg/injection, schedule: Q04DX003 (ip), vehicle: saline) 100 % of control; (endpoint: median survival time, dose: 50.0 mg/kg/injection, schedule: Q04DX003 (ip), vehicle: saline) 100 % of control; (endpoint: median survival time, dose: 100.0 mg/kg/injection, schedule: Q04DX003 (ip), vehicle: saline) 90 % of control; (endpoint: median survival time, dose: 200.0 mg/kg/injection, schedule: Q04DX003 (ip), vehicle: saline) 100 % of control.

`[Cl][Pt+2][Cl].[NH-]C1CCCC1.[NH2-]`: the T/C reads like this: (endpoint: mean survival time, dose: 0.39 mg/kg/injection, schedule: Q04DX003 (ip), vehicle: water) 106 % of control; (endpoint: mean survival time, dose: 0.78 mg/kg/injection, schedule: Q04DX003 (ip), vehicle: water) 122 % of control; (endpoint: mean survival time, dose: 3.12 mg/kg/injection, schedule: Q04DX003 (ip), vehicle: saline with Tween-80) 182 % of control; (endpoint: mean survival time, dose: 3.13 mg/kg/injection, schedule: Q04DX003 (ip), vehicle: water) 156 % of control.

Regarding `O=C(C=P(c1ccccc1)(c1ccccc1)c1ccccc1)c1ccc([N+](=O)[O-])cc1`, the T/C is, setting by setting: (endpoint: mean survival time, dose: 50.0 mg/kg/injection, schedule: Q01DX001 (ip), vehicle: Klucel (hydroxypropylcellulose) (HPC)) 90 % of control; (endpoint: mean survival time, dose: 100.0 mg/kg/injection, schedule: Q01DX001 (ip), vehicle: Klucel (hydroxypropylcellulose) (HPC)) 94 % of control; (endpoint: mean survival time, dose: 200.0 mg/kg/injection, schedule: Q01DX001 (ip), vehicle: Klucel (hydroxypropylcellulose) (HPC)) 102 % of control; (endpoint: mean survival time, dose: 400.0 mg/kg/injection, schedule: Q01DX001 (ip), vehicle: Klucel (hydroxypropylcellulose) (HPC)) 93 % of control.

Regarding `Cc1ccc(O)c(C)n1`, the T/C under setting [1] was 104 % of control; the T/C (endpoint: mean survival time, dose: 200.0 mg/kg/injection, schedule: Q04DX003 (ip), vehicle: saline) is 98 % of control; the T/C (endpoint: mean survival time, dose: 400.0 mg/kg/injection, schedule: Q04DX003 (ip), vehicle: saline) was 97 % of control.

Regarding `Cc1cc2oc(=O)c(Cl)c(NCCO)c2c(C)c1Cl`, the T/C is, setting by setting: under setting [4], 98 % of control; under setting [5], 98 % of control; under setting [6], 93 % of control.

Consider `CNC(=O)Cc1ccc2cc(OC)c(OC)cc2c1`, for which the T/C reads like this: under setting [11], 100 % of control; under setting [12], 102 % of control.

For the compound `CCCCCCCCCCCC1=NC(CO)(CO)CO1`, the T/C under setting [11] is 96 % of control; the T/C under setting [12] is 90 % of control; the T/C (endpoint: mean survival time, dose: 400.0 mg/kg/injection, schedule: Q01DX009 (ip), vehicle: saline with Tween-80) was 93 % of control.

For `CCCCCCCCCCCC(=O)/C=C/Sc1n[nH]c(=O)[nH]c1=O`, the T/C by setting is: (endpoint: mean survival time, dose: 12.5 mg/kg/injection, schedule: Q01DX005 (ip), vehicle: distilled water + Tween-80) 102 % of control; (endpoint: mean survival time, dose: 25.0 mg/kg/injection, schedule: Q01DX005 (ip), vehicle: distilled water + Tween-80) 104 % of control; (endpoint: mean survival time, dose: 50.0 mg/kg/injection, schedule: Q01DX005 (ip), vehicle: distilled water + Tween-80) 100 % of control; (endpoint: mean survival time, dose: 100.0 mg/kg/injection, schedule: Q01DX005 (ip), vehicle: distilled water + Tween-80) 102 % of control.

In the case of `CCCCCNCCOC(=O)c1ccc(N)cc1`, the T/C (endpoint: mean survival time, dose: 5.0 mg/kg/injection, schedule: Q01DX001 (ip), vehicle: saline) is 100 % of control; the T/C (endpoint: mean survival time, dose: 10.0 mg/kg/injection, schedule: Q01DX001 (ip), vehicle: saline) was 100 % of control; the T/C (endpoint: mean survival time, dose: 20.0 mg/kg/injection, schedule: Q01DX001 (ip), vehicle: saline) is 94 % of control; the T/C (endpoint: mean survival time, dose: 40.0 mg/kg/injection, schedule: Q01DX001 (ip), vehicle: saline) was 104 % of control.
